US20110009616A1, “AGENT FOR PREVENTING ARTERIOSCLEROSIS” (priority 2006, published 2011)

How the values were obtained:
[1] = system: living cells (mitochondria activity); test: Cytotoxicity, number of living cells by Cell counting Kit-8 (WST-8) (Example 5); type: cell-based; settings: 7 hours with compound; concentrations where the inhibitory activities were effective; results not shown
Procedure: In order to examine cytotoxicities of the compounds in Examples 1 to 4 and Comparative Examples 1 to 9, the number of living cells was measured as follows. As a method for measuring the number of living cells, a MTT method using a reduction of MTT (3-(4,5-dimethyl-2-thiazolyl)-2,5-diphenyltetrazolium bromide) to formazan (formed as a poorly soluble precipitate) by dehydrogenase in mitochondria, and the like, are generally used. Thus, “Cell counting Kit-8” (manufactured by Dojindo Laboratories, WST-8 which forms a water soluble formazan is used instead of MTT), a modified method of the MTT method, was used for the measurement of the number of living cells. Specifically, 100 μL of cells were seeded into inner 60 wells of a 96-well plate (manufactured by Falcon) so as to be 3.0×10^4 cells/mL, respectively (in order to avoid temperature variation, 100 μL of a culture medium was only added into the outer 36 wells). After cultivating for 2 days (37° C.), 50 μL of the culture supernatant was removed and 50 μL of a new culture medium containing each compound with an appropriate dilution rate was added. After adding the new culture medium containing each compound, the cells were cultivated for 7 hours. After 7 hours, each well was washed with 100 μL of the culture medium without the compounds three times, and then 3 μL of a culture medium containing “WST-8”, a “Cell counting Kit-8” solution, was added to each well. After cultivating for 1 hour, absorbance at 450 nm of each culture medium was measured and converted to the number of living cells. It is considered that three washing operations in the process omit the effect of the compounds in the external solution on the absorbance.

[2] = biological target: T1, bLOX-1 (Bos taurus, UniProt P79391); test: Plate assay: binding of oxidized LDL to recombinant bLOX-1 (Test Example 1); design: 6xHis (N); made in house; host or cells: E. coli; species or system bovine; settings: final concentration of 16 μM, FIG. 1; for binding rate of oxidized LDL to bLOX-1 (inhibition of binding): control without compounds = 100
Procedure: A LOX-1 antagonist activity of the agent for preventing arteriosclerosis obtained in the above-mentioned Example was evaluated on a LOX-1 binding inhibition rate to oxidized LDL using a recombinant LOX-1 protein obtained from E. coli.
As for the recombinant LOX-1, in cDNA of LOX-1 derived from bovine (bLOX-1) or derived from human (hLOX-1), a sequence to the C-terminal removing a transmembrane region was inserted into a pQE30 vector having a 6-histidine tag sequence (6×His) at the N-terminal (manufactured by Qiagen) so as to have a sequence aligned to a translation frame. The vector was transformed into E. coli able to be controlled by T5 promoter and the expression of each LOX-1 was induced under induction of 1 m M of isopropyl-1-thio-β-D-[…] (IPTG). After the induction of each expression at 37° C. for 3 hours, since the recombinant LOX-1 was obtained from an insoluble fraction, E. coli was lysed in a buffer containing 6 M guanidine hydrochloride and purified by affinity column chromatography using a Ni-NTA agarose column (manufactured by Qiagen) as the marker of 6×His (solvent: phosphoric acid buffer). Furthermore, each of the elution fractions containing LOX-1 was dialyzed in a 20 mM tris buffer (pH 9.0) and a 8M urea containing buffer, applied to a HiTrap Q column, an anion exchanger, (manufactured by Amersham), and eluted and purified with a linear concentration gradient of NaCl. Each of the fractions containing LOX-1 obtained above was reduced in a buffer containing excess amount of DTT (dithiothreitol), and then intramolecular S-S bonds were unwinded by a redox system using a mixture of oxidized […] low molecular thiol compounds. Each LOX-1 obtained above has a binding ability to the oxidized LDL and will be used as a LOX-1 standard for the following plate assays.
The plate assay was carried out using MaxiSorp Immuno Plate (96-well type, manufactured by NUNC). Each LOX-1 purified above was prepared with a PBS buffer so as to be 5 μg/mL, and 100 μL of the solution was applied to each well. After leaving at 4° C. overnight, each well was washed with 400 μL of a PBS buffer twice (400 μL×2) and 300 μL of a PBS buffer containing 25% BlockAce (manufactured by Dainippon Sumitomo Pharma Co., Ltd.) was applied to each well. After leaving at 4° C. overnight, each well was washed with 400 μL of a PBS buffer twice (400 μL×2), a solution of ethyl pheophorbide a was prepared with a PBS buffer containing 1% bovine serum albumin (BSA) so as to have an appropriate dilution rate, and 100 μL of the solution was applied to each well. After leaving at 4° C. overnight, each well was washed with 400 μL of a PBS buffer three times (400 μL×3), a solution of oxidized LDL was prepared with a PBS buffer so as to be 5 μg/mL, and 100 μL of the solution was applied to eachr well. After leaving at 4° C. overnight, each well was washed with 400 μL of a PBS buffer three times (400 μL×3), a horseradish peroxidase-conjugated anti-apolipoprotein B antibody (manufactured by The Binding Site) was diluted 1000 times with a PBS buffer, and 100 μL of the solution was applied to each well. After leaving at room temperature for 2 hours, each well was washed with 400 μL of a PBS buffer five times (400 μL×5), and 100 μL of a 3,3′,5,5′-tetramethylbenzidine (TMB) peroxidase-enzyme immunoassay (EIA)-substrate-kit reagent (manufactured by Bio-Rad) was applied to each well. After an appropriate reaction period, 50 μL of 2M H2SO4 was applied to each well to stop the reaction. Finally, a LOX-1 antagonist activity (an oxidized LDL binding inhibition rate to LOX-1) was determined by detection at 450 nm.
Target sequence in this assay (P79391 57-270 limits assumed): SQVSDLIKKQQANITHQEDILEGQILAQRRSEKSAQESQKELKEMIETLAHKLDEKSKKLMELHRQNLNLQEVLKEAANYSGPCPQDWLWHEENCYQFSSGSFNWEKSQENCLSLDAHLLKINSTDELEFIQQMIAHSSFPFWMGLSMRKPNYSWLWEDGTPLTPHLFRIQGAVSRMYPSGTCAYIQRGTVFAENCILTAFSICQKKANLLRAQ

[3] = biological target: T1, bLOX-1; test: Fluorescently labeled oxidized LDL uptake into CHO cells stably expressing bLOX-1 (Examples 6, 7); type: cell-based, bovine; design: By a positive screening using a full-length bLOX cDNA; expressed in transfected cells; settings: Example 7; FIG. 6
Target sequence in this assay (P79391 whole entry): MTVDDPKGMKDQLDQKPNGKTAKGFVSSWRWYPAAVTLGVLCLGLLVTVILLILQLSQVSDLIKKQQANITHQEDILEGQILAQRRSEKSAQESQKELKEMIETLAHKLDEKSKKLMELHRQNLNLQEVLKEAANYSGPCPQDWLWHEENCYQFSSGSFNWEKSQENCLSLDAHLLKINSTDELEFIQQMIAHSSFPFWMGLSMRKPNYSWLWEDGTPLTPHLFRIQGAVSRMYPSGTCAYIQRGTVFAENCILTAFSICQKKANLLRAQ

C=CC1=C(C)c2cc3[nH]c(c4c5nc(cc6[nH]c(cc1n2)c(C)c6CC)C(C)=C5C(=O)C4C(=O)OC)C(CCC(=O)OCC)C3C (stereo not drawn) [ethyl pheophorbide a]
cytotoxicity (number of living cells) [1]: did not show the cytotoxicity
inhibition activity on binding of oxidized LDL to bLOX-1 (ranking among actives) [2]: high inhibition activities
binding rate of oxidized LDL to bLOX-1 (inhibition of binding) [2]: inhibit the binding significantly

C[C@@H]1[C@H](O)[C@@H](C)/C=C/C=C/CC/C=C/C=C/C=C/C=C/C(O[C@H]2O[C@H](C)[C@@H](O)[C@H](N)[C@@H]2O)CC2O[C@](O)(CC(O)C(O)CCC(O)CC(O)CC(O)CC(=O)O[C@H]1C)CC(O)C2C(=O)O (stereo partly drawn) [nystatin, Nystatin]
inhibition of DiI-OxLDL uptake in CHO cells expressing bLOX, compared with inhibition of CTB uptake [3]: nearly equal to that of CTB

hematoporphyrin
cytotoxicity (number of living cells) [1]: did not show the cytotoxicity
inhibition activity on binding of oxidized LDL to bLOX-1 (ranking among actives) [2]: high inhibition activities
binding rate of oxidized LDL to bLOX-1 (inhibition of binding) [2]: inhibit the binding significantly

uroporphyrin III
cytotoxicity (number of living cells) [1]: did not show the cytotoxicity
binding rate of oxidized LDL to bLOX-1 (inhibition of binding) [2]: inhibit the binding significantly
